Source: the NIST ThermoML archive (doi:10.1016/j.jct.2015.02.017)
Numbers after ± are expanded uncertainties.

Experiment: mn = molality of the nth substance listed, in mol/kg
Conditions: 298.15 K, 101 kPa, Liquid; for viscosity: Capillary tube (Ostwald / Ubbelohde) method; for mass density: Vibrating tube method

Work on `C[n+]1ccn(CCCCCCn2cc[n+](C)c2)c1.[Br-].[Br-]` + O yielded a viscosity (m1 = 0.0407) of 0.917 ± 0.019 mPa·s, a viscosity (m1 = 0.0989) of 0.953 ± 0.02 mPa·s and a viscosity (m1 = 0.1196) of 0.966 ± 0.02 mPa·s. For the same compound, the viscosity (m1 = 0.1403) was 0.98 ± 0.02 mPa·s, the viscosity (m1 = 0.1604) was 0.993 ± 0.021 mPa·s and the viscosity (m1 = 0.2001) was 1.02 ± 0.021 mPa·s. For the same compound, the mass density (m1 = 0.0814) was 1006.92 ± 0.089 kg/m3, the mass density (m1 = 0.1) was 1009.1 ± 0.09 kg/m3 and the mass density (m1 = 0.1206) was 1011.5 ± 0.09 kg/m3. It also gave a mass density (m1 = 0.1403) of 1013.75 ± 0.092 kg/m3 and a mass density (m1 = 0.1772) of 1017.94 ± 0.095 kg/m3.
Compound `C[n+]1ccn(CCCCCn2cc[n+](C)c2)c1.[Br-].[Br-]` + O has a viscosity (m1 = 0.05) of 0.917 ± 0.019 mPa·s, a viscosity (m1 = 0.0967) of 0.943 ± 0.02 mPa·s and a viscosity (m1 = 0.1108) of 0.949 ± 0.02 mPa·s. For the same compound, the viscosity (m1 = 0.1389) was 0.966 ± 0.02 mPa·s, the viscosity (m1 = 0.1621) was 0.979 ± 0.02 mPa·s and the viscosity (m1 = 0.1929) was 0.996 ± 0.021 mPa·s. It also gave a mass density (m1 = 0.05) of 1003.25 ± 0.088 kg/m3, a mass density (m1 = 0.0825) of 1007.17 ± 0.09 kg/m3 and a mass density (m1 = 0.1108) of 1010.53 ± 0.091 kg/m3. For the same compound, the mass density (m1 = 0.1522) was 1015.32 ± 0.093 kg/m3 and the mass density (m1 = 0.2152) was 1022.44 ± 0.099 kg/m3.
In the case of `C[n+]1ccn(CCCCn2cc[n+](C)c2)c1.[Br-].[Br-]` + O, the viscosity (m1 = 0.0993) is reported as 0.94 ± 0.02 mPa·s, the viscosity (m1 = 0.1398) is reported as 0.958 ± 0.02 mPa·s and the viscosity (m1 = 0.1597) is reported as 0.967 ± 0.02 mPa·s. It also gave a viscosity (m1 = 0.1794) of 0.977 ± 0.02 mPa·s, a viscosity (m1 = 0.194) of 0.984 ± 0.02 mPa·s and a viscosity (m1 = 0.2187) of 0.996 ± 0.021 mPa·s. It also gave a viscosity (m1 = 0.2485) of 1.008 ± 0.021 mPa·s, a mass density (m1 = 0.0993) of 1009.54 ± 0.091 kg/m3 and a mass density (m1 = 0.1398) of 1014.42 ± 0.093 kg/m3. The mass density (m1 = 0.1597) was 1016.78 ± 0.095 kg/m3, the mass density (m1 = 0.194) was 1020.81 ± 0.098 kg/m3 and the mass density (m1 = 0.2187) was 1023.65 ± 0.099 kg/m3. The mass density (m1 = 0.2485) was 1027.04 ± 0.1 kg/m3.
In the case of `O=C[C@H](O)[C@@H](O)[C@H](O)[C@H](O)CO` [D-glucose] + O, the viscosity (m1 = 0.2) is reported as 0.975 ± 0.02 mPa·s, the viscosity (m1 = 0.4) is reported as 1.068 ± 0.022 mPa·s and the viscosity (m1 = 0.8) is reported as 1.28 ± 0.027 mPa·s. It also gave a viscosity (m1 = 1.2) of 1.532 ± 0.032 mPa·s, a viscosity (m1 = 1.6) of 1.83 ± 0.038 mPa·s and a mass density (m1 = 0.2) of 1010.41 ± 0.14 kg/m3. For the same compound, the mass density (m1 = 0.4) was 1023.12 ± 0.14 kg/m3, the mass density (m1 = 0.8) was 1046.88 ± 0.15 kg/m3 and the mass density (m1 = 1.2) was 1068.58 ± 0.16 kg/m3. The mass density (m1 = 1.6) was 1088.48 ± 0.16 kg/m3.
